Data published in US20260007684A1, “AMIDE DERIVATIVES FOR INHIBITING NLRP3 AND USES THEREOF” (Ventus Therapeutics U.S., Inc., priority 2023, published 2026).

Biological target: human NLRP3 (Homo sapiens (Human), UniProt Q96P20)
Experiment: Scintillation Proximity (SPA) NLRP3 Assay: displacement of 3H-MCC950
Format: binding
Details: SPA IC50, displacement of 3H-MCC950

human NLRP3, sequence (Q96P20 whole entry): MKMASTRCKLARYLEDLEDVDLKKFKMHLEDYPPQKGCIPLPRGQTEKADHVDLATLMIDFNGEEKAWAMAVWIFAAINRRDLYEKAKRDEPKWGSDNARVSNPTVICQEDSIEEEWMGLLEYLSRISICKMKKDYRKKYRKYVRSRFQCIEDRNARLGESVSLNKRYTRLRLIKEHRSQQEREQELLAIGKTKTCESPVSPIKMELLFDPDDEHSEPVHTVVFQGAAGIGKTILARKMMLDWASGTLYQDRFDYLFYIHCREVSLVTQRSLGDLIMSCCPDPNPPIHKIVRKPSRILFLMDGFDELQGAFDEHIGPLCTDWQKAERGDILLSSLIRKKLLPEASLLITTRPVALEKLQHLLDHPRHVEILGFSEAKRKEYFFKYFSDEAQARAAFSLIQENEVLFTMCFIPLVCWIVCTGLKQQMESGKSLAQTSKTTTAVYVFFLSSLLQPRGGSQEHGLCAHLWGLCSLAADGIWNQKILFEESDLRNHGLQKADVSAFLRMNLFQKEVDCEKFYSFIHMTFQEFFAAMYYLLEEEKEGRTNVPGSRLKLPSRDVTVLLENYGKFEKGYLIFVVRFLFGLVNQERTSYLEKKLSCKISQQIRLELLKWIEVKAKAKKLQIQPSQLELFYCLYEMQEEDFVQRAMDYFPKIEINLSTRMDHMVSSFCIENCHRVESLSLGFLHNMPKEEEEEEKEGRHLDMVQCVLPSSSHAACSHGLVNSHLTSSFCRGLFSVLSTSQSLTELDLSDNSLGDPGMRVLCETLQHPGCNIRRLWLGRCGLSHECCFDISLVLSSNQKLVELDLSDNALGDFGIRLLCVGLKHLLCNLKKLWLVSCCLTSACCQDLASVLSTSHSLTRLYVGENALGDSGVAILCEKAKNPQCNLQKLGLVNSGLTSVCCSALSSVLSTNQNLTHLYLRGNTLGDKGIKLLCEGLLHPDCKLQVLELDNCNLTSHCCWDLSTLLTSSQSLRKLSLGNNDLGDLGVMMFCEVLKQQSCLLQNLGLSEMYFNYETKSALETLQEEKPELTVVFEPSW

**Q.** With `O=C(N[C@@H]1CCC[C@H]2CC[C@@H]1N2c1nnn[nH]1)C1(c2ccc(C(F)(F)F)cc2O)CC1` [88C*, N-((1S,2R,6S)-9-(1H-tetrazol-5-yl)-9-azabicyclo[4.2.1]nonan-2-yl)-1-(2-hydroxy-4-(trifluoromethyl)phenyl)cyclopropane-1-carboxamide] as the molecule, how does the IC50 read?
**A.** Its IC50 is 50 to 100 µM.

**Q.** For `C[C@H]1C[C@@H]2CC[C@H]([C@@H](NC(=O)C3(c4ccc(C(F)(F)F)cc4)CC3)C1)N2c1nnn[nH]1` [104B*, N-((1R,2S,4R,6S)-4-methyl-9-(1H-tetrazol-5-yl)-9-azabicyclo[4.2.1]nonan-2-yl)-1-(4-(trifluoromethyl)phenyl)cyclopropane-1-carboxamide], which IC50 is on record?
**A.** Its IC50 is 10 to 50 µM.

Same assay, conditions: displacement of 3H-MCC950; read-out: SPA IC50

**Q.** For `C[C@H]1C[C@@H](NC(=O)C2(c3ccc(C4CC4(F)F)cc3)CC2)[C@@H]2CC[C@H]1N2c1nnn[nH]1` (single isomer, unassigned) [37C*], which IC50 is on record?
**A.** The IC50 was greater than 100 µM.

**Q.** With `C[C@H]1CCN(c2nnn[nH]2)C[C@@H](NC(=O)C2(c3ccc(SC(F)(F)F)cc3)CC2)C1` (single isomer, unassigned) [69D*] as the molecule, how does the IC50 read?
**A.** The IC50 was 10 to 50 µM.

**Q.** With `C[C@H]1C[C@H](NC(=O)C2(c3ccc(C(F)F)cc3)CC2)[C@@H]2CC[C@H]1N2c1nnn[nH]1` [86D*, 1-(4-(difluoromethyl)phenyl)-N-((1S,2S,4S,5R)-4-methyl-8-(1H-tetrazol-5-yl)-8-azabicyclo[3.2.1]octan-2-yl)cyclopropane-1-carboxamide] as the molecule, how does the IC50 read?
**A.** Its IC50 is greater than 100 µM.

**Q.** With `C[C@@H]1C[C@H](NC(=O)C2(c3ccc(OC(F)F)cc3)CC2)[C@H]2CC[C@@H]1N2c1nnn[nH]1` (single isomer, unassigned) [35B*] as the molecule, how does the IC50 read?
**A.** The IC50 was 50 to 100 µM.

**Q.** For `C[C@@H]1CC[C@@H](NC(=O)C2(c3ccc(C(F)(F)F)cc3O)CC2)CN(c2nnn[nH]2)C1` [89C*, 1-(2-hydroxy-4-(trifluoromethyl)phenyl)-N-((3R,6R)-6-methyl-1-(1H-tetrazol-5-yl)azepan-3-yl)cyclopropane-1-carboxamide], which IC50 is on record?
**A.** Its IC50 is 1 to 10 µM.

**Q.** Which IC50 does the source give for `C[C@H]1CCN(c2nnn[nH]2)C[C@@H](NC(=O)C2(c3ccc(Cl)cc3O)CC2)C1` (single isomer, unassigned) [60D*] here?
**A.** Its IC50 is less than 1 µM.

**Q.** How did the IC50 turn out when `O=C(N[C@H]1C[C@@H](C(F)(F)F)[C@@H]2CC[C@H]1N2c1nnn[nH]1)C1(c2ccc(Cl)cc2)CC1` (single isomer, unassigned) [103B*] was run?
**A.** The IC50 was greater than 100 µM.

**Q.** `COc1cc(F)c(C2(C(=O)N[C@H]3C[C@H](C)[C@H]4CC[C@@H]3N4c3nnn[nH]3)CC2)c(F)c1` (single isomer, unassigned) [102D*] was tested. Which IC50 did it give?
**A.** Its IC50 is 10 to 50 µM.

**Q.** Which IC50 does the source give for `C[C@@H]1CC[C@@H](NC(=O)C2(c3ccc(Cl)cc3O)CC2)CN(c2nnn[nH]2)C1` (single isomer, unassigned) [90C*] here?
**A.** The IC50 was 10 to 50 µM.

**Q.** How did the IC50 turn out when `O=C(NC1CC(C2CC2)CN(c2nnn[nH]2)C1)C1(c2ccc(Cl)cc2)CC1` (single isomer, unassigned) [Rac-13A*/D*, 1-(4-chlorophenyl)-N-(5-cyclopropyl-1-(1H-tetrazol-5-yl)piperidin-3-yl)cyclopropane-1-carboxamide] was run?
**A.** Its IC50 is 1 to 10 µM.

**Q.** `Cc1ccc(C2(C(=O)N[C@H]3C[C@H](C)[C@H]4CC[C@@H]3N4c3nnn[nH]3)CC2)cc1` [87D*, N-((1S,2S,4S,5R)-4-methy1-8-(1H-tetrazol-5-yl)-8-azabicyclo[3.2.1]octan-2-yl)-1-(p-tolyl)cyclopropane-1-carboxamide] was tested. Which IC50 did it give?
**A.** Its IC50 is greater than 100 µM.

**Q.** Which IC50 does the source give for `C[C@H]1CCN(c2nnn[nH]2)C[C@H](NC(=O)C2(c3ccc(OC(F)(F)F)cc3)CC2)C1` (single isomer, unassigned) [57C*] here?
**A.** Its IC50 is greater than 100 µM.

**Q.** For `C[C@@H]1CCN(c2nnn[nH]2)C[C@@H](NC(=O)C2(c3ccc(Br)cc3)CC2)C1` (single isomer, unassigned) [59B*], which IC50 is on record?
**A.** Its IC50 is 1 to 10 µM.

**Q.** Which IC50 does the source give for `C[C@@H]1CCN(c2nnn[nH]2)C[C@@H](NC(=O)C2(c3ccc(C(F)(F)F)c(F)c3)CC2)C1` (single isomer, unassigned) [66B*] here?
**A.** Its IC50 is 1 to 10 µM.

**Q.** `C[C@H]1CCN(c2nnn[nH]2)C[C@@H](NC(=O)C2(c3ccc(OC(F)F)cc3F)CC2)C1` (single isomer, unassigned) [3D*] was tested. Which IC50 did it give?
**A.** Its IC50 is 1 to 10 µM.

**Q.** `C[C@H]1CCN(c2nnn[nH]2)C[C@H](NC(=O)C2(c3ccc(OC(F)F)cc3F)CC2)C1` (single isomer, unassigned) [3C*] was tested. Which IC50 did it give?
**A.** Its IC50 is greater than 100 µM.

**Q.** `O=C(N[C@H]1CCC[C@@H]2CC[C@H]1N2c1nnn[nH]1)C1(c2ccc(C(F)(F)F)cc2O)CC1` [88B*, N-((1R,2S,6R)-9-(1H-tetrazol-5-yl)-9-azabicyclo[4.2.1]nonan-2-yl)-1-(2-hydroxy-4-(trifluoromethyl)phenyl)cyclopropane-1-carboxamide] was tested. Which IC50 did it give?
**A.** Its IC50 is less than 1 µM.

**Q.** For `C[C@H]1CCN(c2nnn[nH]2)C[C@@H](NC(=O)C2(c3ccc(Cl)nc3O)CC2)C1` (single isomer, unassigned) [100D*], which IC50 is on record?
**A.** The IC50 was greater than 100 µM.

**Q.** How did the IC50 turn out when `C[C@H]1C[C@@H](NC(=O)C2(c3ccc(C(F)F)cc3)CC2)[C@@H]2CC[C@H]1N2c1nnn[nH]1` [86C*, 1-(4-(difluoromethyl)phenyl)-N-((1S,2R,4S,5R)-4-methyl-8-(1H-tetrazol-5-yl)-8-azabicyclo[3.2.1]octan-2-yl)cyclopropane-1-carboxamide] was run?
**A.** The IC50 was greater than 100 µM.

**Q.** Which IC50 does the source give for `C[C@H]1C[C@@H](NC(=O)C2(c3ccc(C4CC4)cc3)CC2)[C@@H]2CC[C@H]1N2c1nnn[nH]1` [81C*, 1-(4-cyclopropylphenyl)-N-((1S,2R,4S,5R)-4-methyl-8-(1H-tetrazol-5-yl)-8-azabicyclo[3.2.1]octan-2-yl)cyclopropane-1-carboxamide] here?
**A.** Its IC50 is 50 to 100 µM.

**Q.** For `C[C@H]1C[C@H](NC(=O)C2(c3ccc(C(F)(F)F)cc3)CC2)[C@@H]2CC[C@H]1N2c1nnn[nH]1` [79D*, N-((1S,2S,4S,5R)-4-methyl-8-(1H-tetrazol-5-yl)-8-azabicyclo[3.2.1]octan-2-yl)-1-(4-(trifluoromethyl)phenyl)cyclopropane-1-carboxamide], which IC50 is on record?
**A.** The IC50 was 10 to 50 µM.

**Q.** For `C[C@H]1CCN(c2nnn[nH]2)C[C@H](NC(=O)C2(c3ccc(Cl)cc3Cl)CC2)C1` (single isomer, unassigned) [55C*], which IC50 is on record?
**A.** The IC50 was 50 to 100 µM.

**Q.** How did the IC50 turn out when `C[C@H]1C[C@H](NC(=O)C2(c3ccc(Cl)cc3)CC2)[C@@H]2CC[C@H]1N2c1nnn[nH]1` [80D*, 1-(4-chlorophenyl)-N-((1S,2S,4S,5R)-4-methyl-8-(1H-tetrazol-5-yl)-8-azabicyclo[3.2.1]octan-2-yl)cyclopropane-1-carboxamide] was run?
**A.** The IC50 was 50 to 100 µM.

**Q.** Which IC50 does the source give for `C[C@H]1CCN(c2nnn[nH]2)C[C@@H](NC(=O)C2(c3ccc(C4CCC4)cc3)CC2)C1` (single isomer, unassigned) [8D*, 1-(4-cyclobutylphenyl)-N-(5-methyl-1-(1H-tetrazol-5-yl)azepan-3-yl)cyclopropane-1-carboxamide] here?
**A.** Its IC50 is 10 to 50 µM.

**Q.** For `C[C@H]1C[C@@H](NC(=O)C2(c3cnc(C(F)(F)F)cc3O)CC2)CN(c2nnn[nH]2)C1` [Compound 26A, 1-(4-hydroxy-6-(trifluoromethyl)pyridin-3-yl)-N-((3R,5S)-5-methyl-1-(1H-tetrazol-5-yl)piperidin-3-yl)cyclopropane-1-carboxamide], which IC50 is on record?
**A.** The IC50 was 1 to 10 µM.

**Q.** How did the IC50 turn out when `O=C(NC1CC(C2CC2)CN(c2nnn[nH]2)C1)C1(c2ccc(Cl)cc2)CC1` (single isomer, unassigned) [Rac-13B*/C*, 1-(4-chlorophenyl)-N-(5-cyclopropyl-1-(1H-tetrazol-5-yl)piperidin-3-yl)cyclopropane-1-carboxamide] was run?
**A.** Its IC50 is 50 to 100 µM.

**Q.** How did the IC50 turn out when `C[C@@H]1CCN(c2nnn[nH]2)C[C@@H](NC(=O)C2(c3ccc(Cl)nc3O)CC2)C1` (single isomer, unassigned) [100B*] was run?
**A.** The IC50 was 10 to 50 µM.
